Laboratory results reported in patent US20260240888A1, “METHODS AND PHARMACEUTICAL COMPOSITIONS FOR TREATING AGE-RELATED DISEASES” (Neurxstem, priority 2023, published 2026).
Where a name gives a salt, the structure may show the parent alone.

What was measured:
[1] = cited from earlier work
[2] = tested on: AD-NNOP-ApoE neural organoids; assay: Gene expression (Ampliseq transcriptomics) in AD-NNOP-ApoE neural organoids treated with CGS-21680; type: cell-based, human
Description: Reads in counts per minute (cpm)<1 are considered background noise. All cpm data are normalized data and the reads are a direct representation of the abundance of the RNA for each gene.
Expression of differentially expressed genes in PG-NNOP neural organoids compared to Normal-NNOP in culture for 12 weeks.

PG-NNOP neural organoids = assay: Gene expression (Ampliseq transcriptomics) in PG-NNOP neural organoids treated with drug; type: cell-based, human
Description: Furthermore, in one embodiment RNA from neural organoids for Alzheimer's disease, are converted to DNA libraries and then the representative DNA libraries are sequenced using exon-specific primers for 20,814 genes using the AmpliSeq™ technique available commercially from ThermoFisher. Reads in counts per […] (cpm)<1 are considered background noise. All cpm data are normalized data and the reads are a direct representation of the abundance of the RNA for each gene. In another informative embodiment, RNA from neural organoids for Progeroid syndromes were converted to DNA libraries and then sequenced according to this protocol.
Neural Organoids derived from induced pluripotent stem cells derived from adult skin cells of AD, ADRD, MED, or Hutchinson Gilford progeria (PG) patients were grown in vitro for […] as previous described in U.S. Pat. No. 11,435,890, incorporated by reference in its entirety herein. Transcriptomic data from these neural organoids were obtained. Differences in expression of 20,814 genes expressed in the human genome were determined between these neural organoids and those from neural organoids from a normal individual human (an individual not having/diagnosed with AD, ADRD, MED, or Progeroid syndromes). Detailed data analysis using Gene Card and Pubmed data bases were performed. […] These genes comprise a suite of biomarkers for Alzheimer's disease.
Thus, given the overlap in transcriptomic profile of AD and PG, experiments were set out to test the effect of targeting this receptor on PG-NNOP. FAAH inhibitor PF-3845, which is known to raise endogenous levels of endocannabinoid anandamide receptor agonist anandamide and increase endocannabinoid anandamide receptor activity, was tested for effects on gene expression dysregulation in PG-NNOP platform cells as set forth herein (Table 7). […] As the log 2 fold numbers reveal, the direction of the change in gene expression was completely reversed in some biomarkers by PF-3845, or the change was reduced by PF-3845. Thus, PF-3845 was capable of reverting the biomarkers of PG to normalcy.
Expression of differentially expressed genes in PG-NNOP neural organoids compared to Normal-NNOP in culture for 12 weeks is shown, as well as expression of differentially expressed genes in PG-NNOP neural organoids with PF-3845 treatment compared to PG-NNOP without drug treatment in culture for 12 weeks. […] PG-NNOP neural organoids were incubated with vehicle (0.1% DMSO; control) or PF-3845 dissolved in DMSO at 10microM for 4 days and harvested for RNA extraction and gene expression analysis by Ampliseq™ (Thermofisher). Log 2 fold change with a positive value indicates a decrease in expression of a PG-NNOP gene when compared to Normal-NNOP or a PG-NNOP gene with FAAH-I compared to PG-NNOP without the drug treatment, and with a negative number indicates an increase in gene expression.
Expression of differentially expressed genes in PG-NNOP neural organoids compared to Normal-NNOP in culture for 12 weeks and expression of differentially expressed genes in PG-NNOP neural organoids with metformin treatment compared to PG-NNOP without drug treatment in culture for 12 weeks is shown. […] PG-NNOP neural organoids were incubated with vehicle (HBBS; control) or metformin dissolved in HBBS at 0.28 mg/ml for 4 days and harvested for RNA extraction and gene expression analysis by Ampliseq™ (Thermofisher). Log 2 fold change with a positive value indicates a decrease in expression of a PG-NNOP gene when compared to Normal-NNOP or a PG-NNOP gene with Metformin compared to PG-NNOP without the drug treatment, and with a negative number indicates an increase in gene expression.
Expression of differentially expressed genes in PG-NNOP neural organoids compared to Normal-NNOP in culture for 12 weeks and expression of differentially expressed genes in PG-NNOP neural organoids with rapamycin treatment compared to PG-NNOP without drug treatment in culture for 12 weeks is shown. […]

[3] = cited from earlier work; remark: listed apart in the source
[4] = 0.28 mg/ml, 4 days, vs PG-NNOP without drug, positive = decrease in expression
[5] = 10microM, 4 days, vs PG-NNOP without drug, positive = decrease in expression
[6] = 50 nM, 4 days, vs PG-NNOP without drug, positive = decrease in expression

For `CCNC(=O)[C@H]1O[C@@H](n2cnc3c(N)nc(C#CC[C@H]4CC[C@H](C(=O)OC)CC4)nc32)[C@H](O)[C@@H]1O` [Apadenoson, methyl (1R,4r)-4-(3-(6-amino-9-((2R,3R,4S,5S)-5-(ethylcarbamoyl)-3,4-dihydroxytetrahydrofuran-2-yl)-9H-purin-2-yl)prop-2-yn-1-yl)cyclohexane-1-carboxylate], the “solubility in DMSO” value ([1]; DMSO) is given as “Soluble in DMSO”.

With `CCNC(=O)[C@H]1O[C@@H](n2cnc3c(N)nc(NCCc4ccc(CCC(=O)O)cc4)nc32)[C@H](O)[C@@H]1O` [CGS-21680, 2-p-(2-Carboxyethyl) phenethylamino-5′-N-ethylcarboxamidoadenosine hydrochloride hydrate] the “effect on dysregulation of SLC7A5 and MT2A” value [2] was “the dysregulation was corrected”, the “effect on gene expression dysregulated in both AD-ApoE-NNOP and PG-NNOP” value ([2]; 1 micromolar) was “significantly altered gene expression” and the “effect on changes in expression of SELENBP1 and RARB in AD-ApoE-NNOP” value ([2]; direction towards normalcy) was “reduced the changes in expression of both genes”. For the same molecule, the “soluble in 45% (w/v) aq 2-hydroxypropyl-β-cyclodextrin” value ([1]; 45% (w/v) aq 2-hydroxypropyl-β-cyclodextrin) was no more than 20 mg/mL and the “soluble in DMSO” value ([1]; DMSO) was “up to 3.4 mg/mL”.

With `CN(C)C(=N)NC(=N)N` [Metformin] the “effect on dysregulated gene expression in PG-NNOP” value (“effect … in PG-NNOP” below) (PG-NNOP neural organoids) was “shifted the gene expression towards normalcy”, the “Log2 Fold Change of CDK1 gene expression” value (PG-NNOP neural organoids; [4]) was 0.52 and the “Log2 Fold Change of CDKN1A gene expression” value (PG-NNOP neural organoids; [4]) was −0.35. For the same molecule, the “Log2 Fold Change of DNAJC1 gene expression” value (PG-NNOP neural organoids; [4]) was −0.26, the “Log2 Fold Change of ID2 gene expression” value (PG-NNOP neural organoids; [4]) was 0.86 and the “Log2 Fold Change of LMNB2 gene expression” value (PG-NNOP neural organoids; [4]) was −0.42. For the same molecule, the “Log2 Fold Change of MT2A gene expression” value (PG-NNOP neural organoids; [4]) was 2.06, the “Log2 Fold Change of POGZ gene expression” value (PG-NNOP neural organoids; [4]) was 0.36 and the “Log2 Fold Change of POLE3 gene expression” value (PG-NNOP neural organoids; [4]) was −0.25. The “Log2 Fold Change of SLC35F1 gene expression” value (PG-NNOP neural organoids; [4]) was −0.47, the “Log2 Fold Change of USP31 gene expression” value (PG-NNOP neural organoids; [4]) was 0.67 and the “Log2 Fold Change of VCP gene expression” value (PG-NNOP neural organoids; [4]) was 0.33. For the same molecule, the “Log2 Fold Change of WRN gene expression” value (PG-NNOP neural organoids; [4]) was 0.71.

For `O=C(Nc1cccnc1)N1CCC(Cc2cccc(Oc3ccc(C(F)(F)F)cn3)c2)CC1` [PF-3845, N-3-Pyridinyl-4-[[3-[[5-(trifluoromethyl)-2-pyridinyl]oxy]phenyl]methyl]-1-piperidinecarboxamide], the “effect … in PG-NNOP” value (PG-NNOP neural organoids) was “effective in correcting the gene expression that was altered in PG-NNOP”, the “Log2 Fold Change of CDKN1A gene expression” value (PG-NNOP neural organoids; [5]) was 0.77 and the “Log2 Fold Change of EZH2 gene expression” value (PG-NNOP neural organoids; [5]) was −0.5. The “Log2 Fold Change of ID2 gene expression” value (PG-NNOP neural organoids; [5]) was 0.35, the “Log2 Fold Change of IDI1 gene expression” value (PG-NNOP neural organoids; [5]) was 1.15 and the “Log2 Fold Change of LMNB2 gene expression” value (PG-NNOP neural organoids; [5]) was −0.67. For the same molecule, the “Log2 Fold Change of MT2A gene expression” value (PG-NNOP neural organoids; [5]) was 2.77, the “Log2 Fold Change of SLC35F1 gene expression” value (PG-NNOP neural organoids; [5]) was −0.65 and the “Log2 Fold Change of SLC38A1 gene expression” value (PG-NNOP neural organoids; [5]) was −0.57. The “Log2 Fold Change of USP31 gene expression” value (PG-NNOP neural organoids; [5]) was 0.62.

In the case of `CO[C@H]1C[C@@H]2CC[C@@H](C)[C@@](O)(O2)C(=O)C(=O)N2CCCC[C@H]2C(=O)O[C@H]([C@H](C)C[C@@H]2CC[C@@H](O)[C@H](OC)C2)CC(=O)[C@H](C)/C=C(\C)[C@@H](O)[C@@H](OC)C(=O)[C@H](C)C[C@H](C)/C=C/C=C/C=C/1C` [Rapamycin], the “effect … in PG-NNOP” value (PG-NNOP neural organoids) is reported as “shifted the gene expression towards normalcy”, the “Log2 Fold Change of CDKN1A gene expression” value (PG-NNOP neural organoids; [6]) is reported as 1.21 and the “Log2 Fold Change of IDI1 gene expression” value (PG-NNOP neural organoids; [6]) is reported as 1.48. For the same molecule, the “Log2 Fold Change of LMNB2 gene expression” value (PG-NNOP neural organoids; [6]) was −0.96, the “Log2 Fold Change of MT2A gene expression” value (PG-NNOP neural organoids; [6]) was 3.23 and the “Log2 Fold Change of POLE3 gene expression” value (PG-NNOP neural organoids; [6]) was 0.75. The “Log2 Fold Change of SLC35F1 gene expression” value (PG-NNOP neural organoids; [6]) was −0.83, the “Log2 Fold Change of SLC38A1 gene expression” value (PG-NNOP neural organoids; [6]) was −1.15 and the “Log2 Fold Change of USP36 gene expression” value (PG-NNOP neural organoids; [6]) was 0.99.

For `COc1ccc(C2CNC(=O)C2)cc1OC1CCCC1` (stereo not drawn) [Rolipram], the IC50 [3] is given as 0.8 µM.
